{
  "source": "patent US9278107B2",
  "about": "“Antibacterial agent composition and antiviral agent composition comprising silicon-containing compound; antibacterializing method, cleaning/mouth rinsing method; method for fixing antibacterial agent and antiviral agent” (Hiroshima University, priority 2008, dated 2016)",
  "key": {"[1]": {"tested_on": "Escherichia coli WP2uvrA and Salmonella typhimurium TA series strains (TA100, TA1535, TA98 and TA1537)", "settings": "positive control"}, "[2]": {"tested_on": "influenza virus A A/swan/Shimane/499/83(H5N3)", "format": "cell-based, influenza virus A (avian)", "settings": "reacted with virus at room temperature for 3 minutes, diluted with DMEM, MDCK(+) cells, TCID50; (20 ppm)"}, "[3]": {"tested_on": "atypical (swine) influenza virus (type H1N1)", "format": "cell-based"}},
  "data": [
    {"smiles": "NC(=O)C(=Cc1ccc([N+](=O)[O-])o1)c1ccco1", "note": "[2-(2-furyl)-3-(5-nitro-2-furyl)acrylamide]", "values": [
      {"measurement": "number of reverse mutant colonies as compared with negative control", "setting": "[1]", "result": "remarkable increase"}
    ]},
    {"smiles": "Cl.Nc1c2ccccc2nc2ccccc12", "note": "[9-Aminoacridine hydrochloride]", "values": [
      {"measurement": "number of reverse mutant colonies as compared with negative control", "setting": "[1]", "result": "remarkable increase"}
    ]},
    {"smiles": "CCCCCCCCCCCCCCCCCC[N+](C)(C)CCC[Si](OCC)(OCC)OCC.[Cl-]", "note": "[EtAC, octadecyldimethyl(3-triethoxysilylpropyl)ammonium chloride]", "values": [
      {"measurement": "EtAC dilution at which it is still effective", "setting": "[2]", "result": 0.002, "unit": "%"},
      {"measurement": "virus inactivating effect", "setting": "[3]", "result": "highly significant effects are found"}
    ]},
    {"smiles": "[N-]=[N+]=[N-]", "note": "[sodium azide]", "values": [
      {"measurement": "number of reverse mutant colonies as compared with negative control", "setting": "[1]", "result": "remarkable increase"}
    ]}
  ]
}
